Laboratory results published in patent US5972933A, “Method of treating microbial infections” (Ed. Geistlich Sohne AG Fur Chemische Industrie, priority 1998, dated 1999).

How the values were obtained:
[1] = test system: VRE, designated HAM-1; details: commonly encountered VRE; cited from earlier work
[2] = test system: EMRSA 15 strains; details: local EMRSA 15 strains, typically; cited from earlier work
[3] = test system: S. aureus NCTC 6571; test: Disc sensitivity testing (Stokes), reference strain; type: cell-based, Staphylococcus aureus; details: CLX
Protocol: All routine sensitivity testing was performed using a standard disc diffusion technique (Stokes) performed on Unipath (Oxoid) Diagnostic Sensitivity Test agar with 5% lysed horse blood.
Testing of Staphylococci--Staphylococcus aureus (Oxford strain) NCTC 6571
Inocula for test and control organisms were prepared from overnight 37° C. Unipath (Oxoid) Brain Heart Infusion broth cultures. Prom these well-mixed cultures, 2 drops ([…]) were transferred to 3 ml sterile water. This suspension was used to moisten sterile cotton tipped swabs which were then used with a rotary plater for inoculation of test plates.
The following disc sets were used for sensitivity testing:
Methicillin Sensitivity Testing
Methicillin (cloxacillin) sensitivity for Staphylococci was confirmed using a methicillin test strips (Methi-test, Medical Wire Limited--MW981) and a heavy inoculum. This was prepared by adding 5 colonies from an overnight nutrient agar plate culture 3 ml water.
For each organism, including sensitive and resistant controls, a loop was charged with the heavy inoculum suspension and streaked across a Unipath (Oxoid) Diagnostic Sensitivity Test plus 5% lysed horse blood agar plate in a single direction. A methicillin strip was then placed on the surface of the plate at right angles to the inocula. […]

[4] = test system: bacteria and fungi; test: Antimicrobial activity (general statements); type: cell-based
[5] = test system: bacteria and fungi; details: known antimicrobial substances; cited from earlier work
[6] = test system: TNF production; test: TNF production in human blood / antibiotic-treated cultures; type: cell-based
Description: Taurolidine and/or Taurultam prevent over-production of cytokines in the patient by monocytes of the blood.

[7] = cited from earlier work
[8] = test system: Staph. app.; test: Resistance to Vancomycin (30 μg/Disc), Staph. app.; type: cell-based
Protocol: ^1 VE30: Resistance to Vancomycin (30 μg/Disc)

## CC1(C)S[C@@H]2[C@H](NC(=O)[C@H](N)c3ccccc3)C(=O)N2[C@H]1C(=O)O [Ampicillin]
[1]
  in vitro resistance of strain: resistance in vitro

## O=C(O)c1cn(C2CC2)c2cc(N3CCNCC3)c(F)cc2c1=O [Ciprofloxacin]
[2]
  in vitro resistance of strain: resistant in vitro

## CCC[C@@H]1C[C@@H](C(=O)N[C@@H]([C@H]2O[C@H](SC)[C@H](O)[C@@H](O)[C@H]2O)[C@H](C)Cl)N(C)C1 [Clindamycin, clindamycin]
[2]
  in vitro resistance of strain: resistant in vitro

## Cc1onc(-c2ccccc2Cl)c1C(=O)N[C@@H]1C(=O)N2[C@@H]1SC(C)(C)[C@@H]2C(=O)O [Cloxacillin]
[2]
  in vitro resistance of strain: resistant in vitro
[3]
  disc sensitivity, methicillin (cloxacillin): S (Test zones <5 mm smaller than the control zone are SENSITIVE)

## CC[C@H]1OC(=O)[C@H](C)[C@@H](O[C@H]2C[C@@](C)(OC)[C@@H](O)[C@H](C)O2)[C@H](C)[C@@H](O[C@@H]2O[C@H](C)C[C@H](N(C)C)[C@H]2O)[C@](C)(O)C[C@@H](C)C(=O)[C@H](C)[C@@H](O)[C@]1(C)O [Erythromycin]
[2]
  in vitro resistance of strain: resistant in vitro
[1]
  in vitro resistance of strain: resistance in vitro

## COc1cccc(OC)c1C(=O)N[C@@H]1C(=O)N2[C@@H]1SC(C)(C)[C@@H]2C(=O)O [Methicillin, methicillin]
[2]
  in vitro resistance of strain: resistant in vitro

## C/C(=C\C(=O)OCCCCCCCCC(=O)O)C[C@@H]1OC[C@H](C[C@@H]2O[C@H]2[C@@H](C)[C@H](C)O)[C@@H](O)[C@H]1O [Mupirocin]
[2]
  in vitro resistance of strain: resistant in vitro

## O=S1(=O)CCNCN1 [Taurultam]
[4]
  rate of bacterial killing: kills bacteria slowly
  resistance development: no resistance development by microbes has been observed
[5]
  antimicrobial spectrum: broad-spectrum activity against aerobic and anaerobic bacteria, mycobacteria and fungi
[6]; added to antibiotic-treated cultures
  TNF production: prevents a rise in TNF production
[6]; antibiotic-treated cultures
  neutralization of released endotoxins: nearly complete neutralization of released endotoxins
[7]
  half-life in vivo: short half-life in vivo

## CN[C@H](CC(C)C)C(=O)N[C@H]1C(=O)N[C@@H](CC(N)=O)C(=O)N[C@H]2C(=O)N[C@H]3C(=O)N[C@H](C(=O)N[C@H](C(=O)O)c4cc(O)cc(O)c4-c4cc3ccc4O)[C@H](O)c3ccc(c(Cl)c3)Oc3cc2cc(c3O[C@@H]2O[C@H](CO)[C@@H](O)[C@H](O)[C@H]2O[C@H]2C[C@](C)(N)[C@H](O)[C@H](C)O2)Oc2ccc(cc2Cl)[C@H]1O [Vancomycin]
[8]
  VE30: Resistance to Vancomycin: S
[1]
  in vitro resistance of strain: resistance in vitro

## Gentamicin
[1]
  in vitro resistance of strain: high level gentamicin resistance

## Teicoplanin
[1]
  in vitro resistance of strain: resistance in vitro
